Data on 1 compound can be found in patent US11180500B2, “Derivatives of relebactam and uses thereof” (ARIXA PHARMACEUTICALS, INC., priority 2018, dated 2021).

The data set can be described thus: Oral bioavailability in Beagle dogs (plasma concentration of relebactam). Format: in vivo. Conditions: male Beagle dogs, IV bolus, mean. The method, then:
The oral bioavailability of certain relebactam prodrugs provided by the present disclosure in Beagle dogs was evaluated.
Dosing formulations are prepared on the day of dosing. Intravenous formulations are prepared under aseptic conditions, sterile filtered, and brought to room temperature prior to dosing. The intravenous formulation included relebactam at a final concentration of 2.8 mg/mL in PBS at pH 7.5.
The formulations were administered to male Beagle dogs weighing about 10 kg. The animals were maintained in accordance with the Guide for the Care and Use of Laboratory Animals, National Research Council, The National Academies Press, Washington, DC, 2011.
The dogs received either an IV bolus dose of 9.9 mg/kg, or a peroral dose of 22 mg/kg (Compound 87) or 20.0 mg/kg (Compound 88). […]
The plasma concentration of relebactam was measured at intervals following administration. […] The relebactam concentration was determined using LC/MS/MS.
The area under the concentration vs. time curves (AUC) was calculated using the linear/log trapezoidal method with linear interpolation. The percent oral bioavailability (% F) of relebactam was determined by comparing the AUC following oral administration with the AUC following IV administration on a dose normalized basis.

A word on the AUC(0-inf): it is the area under the concentration-time curve extrapolated to infinity.

For the compound `O=C(NC1CCNCC1)[C@@H]1CC[C@@H]2CN1C(=O)N2OS(=O)(=O)O` [relebactam], the AUC(0-inf) (dog, nominal dose 10.0 mg/kg (administered 9.88 mg/kg)) turned out to be 29400 ng·h/mL. Further, the AUC0-inf/D (relebactam-equivalent dose 9.88 mg/kg) is 2974.
